Where no end group is shown, it is not given here.
Legend:
C57BL/6J mice [1] = test: Acute food intake in lean mice, s.c. (Example 10); type: in vivo, mouse
Procedure: Female C57BL/6J mice were purchased from Charles Rivers. One week before study initiation the mice were single housed with free access to food and water. […] Thirty minutes prior peptide injection, all mice were administered subcutaneously with DDP-4 inhibitor Valine-pyrrolidide (1.5 mg/mouse). Food intake was measured after 1, 2, 4 and 14 hours (FIG. 14A-D).
Results shown are combined data from five studies with an identical study design as described above. Between each study mice had at least one week washout period.

[2] = Plasma and CSF concentrations after injection into vena cava (RIA GLP-1 assay); type: in vivo; conditions: rat, 10 min after i.v. injection
Procedure: Male Sprague Dawley rats were purchased from Charles Rivers. Animals were anesthetized by hypnorm/dormicum, and restrained in a stereotactic instrument. […] Blood samples were collected prior to the injection of test compounds and straight after CSF aspiration.
The assay buffer was 100 mM Tris buffer with pH 8.5 containing 1% (wt/vol) human serum albumin, 0.01 mM valine-pyrrolidide and 500 KIE aprotinin (final concentrations). […] Plasma and CSF concentrations were measured after dilution in assay buffer. Free and bound moieties were separated with plasma-coated charcoal.

[3] = system: Diet induced obese C57BL/6NTac male mice; test: Acute food intake in diet induced obese mice, s.c. (Example 11); type: in vivo, mouse; conditions: 15 nmol/kg s.c., conjugate also vs GLP-1(7-36)
Procedure: Diet induced obese C57BL/6NTac male mice were purchased from Taconic and continued on a high fat high sucrose diet with free access to water. One week after arrival, animals were double or single housed. […] Thirty minutes prior peptide injection, all mice were administered subcutaneously with DDP-4 inhibitor Valine-pyrrolidide (3 mg/mouse). Food intake was measured after 1, 2, 4 and 14 hours (FIG. 15A-D).

C57BL/6J mice [4] = test: Acute food intake in lean mice, SH(2-11)-Exendin-4 (Example 12); type: in vivo, mouse; conditions: 15 nmol/kg s.c., conjugate also vs Exendin-4(1-39)
Procedure: Female C57BL/6J mice were purchased from Charles Rivers. One week before study initiation the mice were single housed with free access to food and water. […] Food intake was measured after 1, 2, 4 and 14 hours (FIG. 16A-D).

GPR125 (ADGRA3) [5] = target: T1, GPR125 (ADGRA3) (Homo sapiens, UniProt Q8IWK6); test: xCELLigence impedance, HEK293 Flp-In T-rex cells with full length GPR125; type: cell-based; design: HEK293 Flp-In T-rex cells stably transfected with full length (FL) GPR125; expressed in transfected cells; host or cells: HEK293 Flp-In T-rex cells; conditions: HEK293 Flp-In T-rex cells stably transfected with full length (FL) GPR125, first 30 minutes after stimulation
T1 sequence (Q8IWK6 34-1321): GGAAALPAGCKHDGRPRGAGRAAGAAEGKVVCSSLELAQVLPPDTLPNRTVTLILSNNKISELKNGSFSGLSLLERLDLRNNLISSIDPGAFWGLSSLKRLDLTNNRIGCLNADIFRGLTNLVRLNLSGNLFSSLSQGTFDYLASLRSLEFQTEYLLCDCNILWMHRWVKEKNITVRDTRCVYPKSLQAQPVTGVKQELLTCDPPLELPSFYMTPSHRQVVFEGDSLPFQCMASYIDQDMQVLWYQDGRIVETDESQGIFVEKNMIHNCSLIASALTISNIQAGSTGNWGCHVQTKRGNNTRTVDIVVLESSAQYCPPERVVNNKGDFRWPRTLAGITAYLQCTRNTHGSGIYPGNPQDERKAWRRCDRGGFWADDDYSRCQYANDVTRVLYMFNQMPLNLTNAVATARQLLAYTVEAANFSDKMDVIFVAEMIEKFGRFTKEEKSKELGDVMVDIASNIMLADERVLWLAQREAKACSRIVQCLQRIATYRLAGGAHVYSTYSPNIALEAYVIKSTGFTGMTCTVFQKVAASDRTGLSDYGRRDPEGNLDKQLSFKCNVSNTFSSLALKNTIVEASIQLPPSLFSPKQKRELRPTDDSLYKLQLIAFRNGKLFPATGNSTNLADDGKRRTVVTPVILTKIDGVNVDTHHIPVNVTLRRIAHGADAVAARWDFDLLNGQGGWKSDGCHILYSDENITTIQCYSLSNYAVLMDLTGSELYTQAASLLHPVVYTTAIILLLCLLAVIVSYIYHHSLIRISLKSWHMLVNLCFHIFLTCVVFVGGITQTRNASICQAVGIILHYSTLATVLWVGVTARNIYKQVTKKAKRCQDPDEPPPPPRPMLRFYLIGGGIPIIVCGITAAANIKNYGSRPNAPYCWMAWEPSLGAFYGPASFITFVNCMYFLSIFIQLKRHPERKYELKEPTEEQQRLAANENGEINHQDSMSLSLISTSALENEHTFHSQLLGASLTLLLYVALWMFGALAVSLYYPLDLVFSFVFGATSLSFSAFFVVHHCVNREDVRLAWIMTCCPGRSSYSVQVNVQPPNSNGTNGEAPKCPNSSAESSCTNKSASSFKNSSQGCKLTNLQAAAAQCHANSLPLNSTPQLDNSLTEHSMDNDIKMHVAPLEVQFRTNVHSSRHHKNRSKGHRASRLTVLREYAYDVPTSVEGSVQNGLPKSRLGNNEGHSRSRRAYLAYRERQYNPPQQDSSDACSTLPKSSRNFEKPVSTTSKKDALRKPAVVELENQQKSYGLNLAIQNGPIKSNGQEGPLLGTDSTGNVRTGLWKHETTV
Procedure: (§1) Once the cells are added to the E-plate they are allowed to adhere and proliferate for 18 hours during which the impedance is measured every 15 minutes generating the initial adhesion and growth curve. Upon stimulation the measurements are change to rapid detection every 15 seconds followed by every minute and every 5 minutes during the first hour after stimulation.

GPR125 (ADGRA3) [6] = target: T1, GPR125 (ADGRA3); test: xCELLigence impedance, MDA231 cells endogenously expressing GPR125; type: cell-based; conditions: first 30 minutes after stimulation
Procedure: as §1

[7] = target: T2, GPR125 (ADGRA3) in mouse choroid plexus (mouse, UniProt Q7TT36 28-1310); test: fluorescence microscopy of mouse brain cryosections, WT against GPR125 KO (KO stained only at 22 µM and 11 µM)
T2 construct: whole, on cells
T2 sequence: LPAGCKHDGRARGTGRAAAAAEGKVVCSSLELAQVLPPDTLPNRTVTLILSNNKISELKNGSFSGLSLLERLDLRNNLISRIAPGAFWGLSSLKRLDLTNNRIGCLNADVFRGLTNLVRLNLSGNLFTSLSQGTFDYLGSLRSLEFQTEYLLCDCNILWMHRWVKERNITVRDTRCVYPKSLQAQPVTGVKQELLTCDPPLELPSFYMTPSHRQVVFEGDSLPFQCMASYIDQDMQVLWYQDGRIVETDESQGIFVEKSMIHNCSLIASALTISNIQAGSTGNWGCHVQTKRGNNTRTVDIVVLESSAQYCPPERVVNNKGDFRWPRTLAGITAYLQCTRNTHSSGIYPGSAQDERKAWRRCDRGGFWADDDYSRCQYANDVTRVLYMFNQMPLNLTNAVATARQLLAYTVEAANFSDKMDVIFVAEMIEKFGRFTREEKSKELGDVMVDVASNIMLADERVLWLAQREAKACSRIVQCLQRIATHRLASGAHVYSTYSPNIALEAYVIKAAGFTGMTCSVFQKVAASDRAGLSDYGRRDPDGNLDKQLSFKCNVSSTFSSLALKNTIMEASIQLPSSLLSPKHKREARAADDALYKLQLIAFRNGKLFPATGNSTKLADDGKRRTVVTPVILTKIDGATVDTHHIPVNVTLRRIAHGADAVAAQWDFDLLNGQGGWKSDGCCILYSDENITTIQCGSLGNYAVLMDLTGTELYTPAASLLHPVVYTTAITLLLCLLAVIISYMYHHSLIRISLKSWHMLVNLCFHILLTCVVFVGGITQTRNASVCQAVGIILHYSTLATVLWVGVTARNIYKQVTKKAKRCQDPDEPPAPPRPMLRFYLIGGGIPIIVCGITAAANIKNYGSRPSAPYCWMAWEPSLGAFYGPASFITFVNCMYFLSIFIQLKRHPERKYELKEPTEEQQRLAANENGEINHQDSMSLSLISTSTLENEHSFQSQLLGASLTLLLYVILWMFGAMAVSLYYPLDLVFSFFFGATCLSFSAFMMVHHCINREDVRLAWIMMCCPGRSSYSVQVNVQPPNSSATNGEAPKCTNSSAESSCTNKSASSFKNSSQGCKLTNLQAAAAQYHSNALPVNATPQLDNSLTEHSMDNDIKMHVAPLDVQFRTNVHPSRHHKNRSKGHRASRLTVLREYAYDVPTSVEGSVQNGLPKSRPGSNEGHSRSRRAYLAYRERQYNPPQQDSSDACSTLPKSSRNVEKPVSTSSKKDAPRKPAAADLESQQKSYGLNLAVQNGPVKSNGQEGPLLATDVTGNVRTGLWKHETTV

Molecule: CC[C@H](C)[C@H](NC(=O)[C@H](Cc1ccccc1)NC(=O)[C@H](CCC(=O)O)NC(=O)[C@H](CCCCN)NC(=O)[C@H](C)NC(=O)[C@H](C)NC(=O)[C@H](CCC(N)=O)NC(=O)CNC(=O)[C@H](CCC(=O)O)NC(=O)[C@H](CC(C)C)NC(=O)[C@H](Cc1ccc(O)cc1)NC(=O)[C@H](CO)NC(=O)[C@H](CO)NC(=O)[C@@H](NC(=O)[C@H](CC(=O)O)NC(=O)[C@H](CO)NC(=O)[C@@H](NC(=O)[C@H](Cc1ccccc1)NC(=O)[C@@H](NC(=O)CNC(=O)[C@H](CCC(=O)O)NC(=O)[C@H](C)NC(=O)[C@@H](N)Cc1c[nH]cn1)[C@@H](C)O)[C@@H](C)O)C(C)C)C(=O)N[C@@H](C)C(=O)N[C@@H](Cc1c[nH]c2ccccc12)C(=O)N[C@@H](CC(C)C)C(=O)N[C@H](C(=O)N[C@@H](CCCCN)C(=O)NCC(=O)N[C@@H](CCCNC(=N)N)C(N)=O)C(C)C [GLP-1(7-36), GLP-1 (7-36) amide, reference compound]
- food intake compared to vehicle (C57BL/6J mice [1]; 15 nmol/kg s.c., after 1 hour): did not show a significant decrease
- food intake compared to vehicle (C57BL/6J mice [1]; 15 nmol/kg s.c., after 2 hours): did not show a significant decrease
- food intake compared to vehicle (C57BL/6J mice [1]; 15 nmol/kg s.c., after 4 hours): did not show a significant decrease
- food intake compared to vehicle (C57BL/6J mice [1]; 15 nmol/kg s.c., after 14 hours): did not show a significant decrease
- food intake compared to vehicle (C57BL/6J mice [1]; 30 nmol/kg s.c., after 1 hour): decreased their food intake significantly
- food intake compared to vehicle (C57BL/6J mice [1]; 30 nmol/kg s.c., after 2 hours): decreased their food intake significantly
- food intake compared to vehicle (C57BL/6J mice [1]; 30 nmol/kg s.c., after 4 hours): less significant
- detectable in CSF by RIA GLP-1 assay [2]: detectable
- food intake compared to vehicle ([3]; after 1 hour): decreased food intake
- food intake compared to vehicle ([3]; after 2 hours): decreased food intake
- food intake compared to vehicle ([3]; after 4 hours): not present

Molecule: Exendin-4 [Exendin-4(1-39)]
- food intake compared to vehicle (C57BL/6J mice [4]; after 1 hour): decreased food intake
- food intake compared to vehicle (C57BL/6J mice [4]; after 2 hours): decreased food intake
- food intake compared to vehicle (C57BL/6J mice [4]; after 4 hours): less significant

Molecule: SH1-9: MPAIQPPLY, MuV SH protein fragment (1-9) (Genotype G Genbank ID QFO38283.1 1-9)
- GPR125 signaling, area under the curve (AUC) of impedance (GPR125 (ADGRA3) [5]): affected GPR125 signaling
- GPR125 signaling, area under the curve (AUC) of impedance (GPR125 (ADGRA3) [6]): affected GPR125 signaling

Molecule: SH1-57: whole mumps virus SH protein 1-57 (MPAIQPPLYLTFLLLILLYLIITLYVWIILTITYKTAVRHAALYQRSFFRWSFDHSL; Genotype G Genbank ID QFO38283.1 1-57; (1)..(57) Genotype G Genbank ID QFO38283.1 1-57)
- GPR125 signaling, area under the curve (AUC) of impedance (GPR125 (ADGRA3) [5]): affected GPR125 signaling
- GPR125 signaling, area under the curve (AUC) of impedance (GPR125 (ADGRA3) [6]): affected GPR125 signaling

Molecule: SH2-9: PAIQPPLY, MuV SH protein fragment (2-9) (Genotype G Genbank ID QFO38283.1 2-9)
- GPR125 signaling, area under the curve (AUC) of impedance (GPR125 (ADGRA3) [5]): affected GPR125 signaling
- GPR125 signaling, area under the curve (AUC) of impedance (GPR125 (ADGRA3) [6]): affected GPR125 signaling

B1: TAMRA labelled SH-protein (SEQ ID NO: 129) (other)
chain: MPAIQPPLYLTFLLLILLYLIITLYVWIILTVTYKTAVRHAALYQRSFFHWSFDHSL
modifications: also: TAMRA labelled
notes: also called TAMRA-functionalized SH protein
- binding result [7]: binds

From patent US20240216519A1, “SMALL HYDROPHOBIC PROTEIN DRUG CONJUGATES AND USES THEREOF” (priority 2021, published 2024)
